Where no end group is shown, it is not given here.
Columns and labels:
[1] = system: High five cells; experiment: Cell proliferation assay ([3H] thymidine incorporation); format: cell-based, Trichoplusia ni; settings: serum-free Grace's medium, test substance ~1,000 nM, cultured 32 hours (FIG. 3)
Procedure: Cultured insect cells of “High five” was purchased from Invitrogen (Holland) and maintained in Grace's medium containing 5% fetus bovine serum. The cells during the exponential growth period were used in the following treatment. After the cells were cultured in a culture solution containing only Grace's medium (with no fetus bovine serum) for 2 days, they were divided into two groups. To one group (novel cytokine group), a peptide according to the present invention was added as a test substance in an amount of ˜1,000 nM. To the other group (control group), bovine serum albumin (BSA) was added as a test substance in an amount of ˜1000 nM. Both groups were cultured for 32 hours in Grace's medium containing 0.5 μCi of [^3H] thymidine. Subsequently, Both groups of cells were washed three times with a phosphate buffered saline (8 mM Na2HPO4, 1.5 mM KH2PO4, 137 mM NaCl, 2.7 mM KCL, pH 7.2). Thereafter, 100 μl of 0.3 N NaOH was added to both groups of cells to lyse the cells. The lysed cells were subjected to the liquid scintillation counter (Aloka LSC-5100 manufactured by Aloka, Japan). In this way, the radioactive count of [^3H] thymidine, which had been incorporated in the cells of each group during culturing, was determined.

[2] = system: hemocytes of a fly (Lucilia cuprina); experiment: Hemocyte aggregation assay; format: cell-based; settings: 10 nM test substance, incubated for about 20 minutes, L. cuprina larval hemocytes, microscopy (FIG. 2)
Procedure: Preparation of Hemolymph for Use in Functional Analysis
Blood (hemolymph) was taken from the 3rd instar flies (Lucilia cuprina) after 24 to 36 hours from molting in an anti-coagulant solution (98 mM NaOH, 186 mM NaCl, 17 mM Na2 EDTA and 41 mM citric acid, pH 4.5). Hemolymph was obtained as sediment by centrifuging at 400 g for one minute, suspended in the anti-coagulation solution, incubated at 4° C. for 30 minutes, and subjected to centrifugal separation at 400 g for one minute to collect hemolymph. The hemolymph thus collected was resuspended in Ex-cell 400 medium (manufactured by JRH bioscience, USA)
Using hemolymph prepared above, an ability of a peptide according to the present invention for aggregating hemocytes was evaluated. 5 μl of a test substance (so as to obtain a final concentration of 10 nM) and 30 μl of a blood cell suspension solution were delivered to 96 wells of a culture plate so as to obtain a cell concentration of 1×10^4 cells/well. As the test substance, a peptide according to the present invention (a final concentration of 10 nM) or bovine serum albumin (a final concentration of 10 nM) as a control was used. The mixture was observed by an inverted phase-contrast microscope (Olympus IX-70) to detect hemocyte aggregation.

Substance	[^3H] thymidine incorporation [1]	hemocyte aggregation [2]
TILSAPSNCQQTDFKGRCL (cysteine pairing not given here) [19-residue peptide cytokine purified from hemolymph of Lucilia cuprina larvae]	increased in a pepetide-concentration dependent manner	hemocyte aggregation is observed
bovine serum albumin (BSA): bovine serum albumin used as a control test substance	not increased	scattered without causing aggregation
